Results reported in PubChem BioAssay AID806 (SRMLSC, 2007).
Active and inactive are the calls of the source. How the calls were made is not given here.

Tested on: virus-infected cells, CPE inhibition, dose response
Assay: PubChem AID 806
Conditions: for EC90: measured here: EC90 CPE inhibition; for CC50: measured here: cytotoxicity, cell viability IC50

Structure (SMILES) | EC50 | EC90 | CC50
Cn1nc([N+](=O)[O-])nc1Sc1nnc(-c2ccccc2)o1 | > 60 µM (inactive) | > 60 µM | > 60 µM
CCOc1ccc(Nc2ncnc3c2cnn3-c2ccccc2)cc1 | > 60 µM (inactive) | > 60 µM | > 60 µM
CCOC(=O)c1cccc(NC(=O)CCS(=O)(=O)c2cccc3nsnc23)c1 | > 60 µM (inactive) | > 60 µM | > 60 µM
CC(c1ccco1)N(C(=O)COc1ccc(Cl)cc1Cl)c1ccccn1 (configuration not stated) | > 60 µM (inactive) | > 60 µM | > 60 µM
COCCNC(=O)C(c1ccccc1C)N(CCOC)C(=O)Cn1nnc2ccccc21 (configuration not stated) | > 60 µM (inactive) | > 60 µM | > 60 µM
CCSc1nnc(-c2ccc(OC)cc2)o1 | > 60 µM (inactive) | > 60 µM | > 60 µM
O=C(O)CCS(=O)(=O)c1nc(-c2cccs2)cc(C(F)(F)F)n1 | > 60 µM (inactive) | > 60 µM | > 60 µM
CC(=O)Nc1ccc(Nc2ncnc3c2cnn3-c2cccc(C)c2)cc1 | > 60 µM (inactive) | > 60 µM | > 60 µM
CCOC(=O)/C=C1\SCC(=O)N1CC(=O)NC1CCCCC1 | > 60 µM (inactive) | > 60 µM | > 60 µM
CCOc1ccc(NC(=O)CCS(=O)(=O)c2cccc3nsnc23)cc1 | > 60 µM (inactive) | > 60 µM | > 60 µM
O=Nc1c(O)n(Cc2cccc(Cl)c2)c2ccccc12 | > 60 µM (inactive) | > 60 µM | > 60 µM
COc1ccc(-n2ncc3c(N4CCc5ccccc54)ncnc32)cc1 | > 60 µM (inactive) | > 60 µM | > 60 µM
COc1c(C(C)C)cc(NC(C)=O)cc1C(C)C | > 60 µM (inactive) | > 60 µM | > 60 µM
CC(c1ccco1)N(C(=O)COc1ccc(Cl)cc1)c1ccccn1 (configuration not stated) | > 60 µM (inactive) | > 60 µM | > 60 µM
COc1ccc(-c2nnc3ccc(SCC(=O)NCc4ccco4)nn23)cc1 | > 60 µM (inactive) | > 60 µM | > 60 µM
CCOC(=O)/C=C1\SCC(=O)N1CC(=O)Nc1ccc(C(C)C)cc1 | > 60 µM (inactive) | > 60 µM | > 60 µM
O=C(Nc1ccccc1)N1CCn2c1nc1ccccc12 | > 60 µM (inactive) | > 60 µM | > 60 µM
CC1CN(C(=O)c2cnn3c(C(F)F)cc(-c4ccccc4)nc23)CC(C)O1 (configuration not stated) | > 60 µM (inactive) | > 60 µM | > 60 µM
CCCCN(C(=O)Cn1nnc2ccccc21)C(C(=O)NCCOC)c1ccc(OC)cc1OC (configuration not stated) | > 60 µM (inactive) | > 60 µM | > 60 µM
COc1ccc(OC)c(Nc2ncnc3c2cnn3-c2cccc(C)c2)c1 | > 60 µM (inactive) | > 60 µM | > 60 µM
Cc1cc(C(=O)Nc2c(C)n(C)n(-c3ccccc3)c2=O)cs1 | > 60 µM (inactive) | > 60 µM | > 60 µM
O=c1[nH]c2ccccc2n1Cc1ccccc1 | > 60 µM (inactive) | > 60 µM | > 60 µM
Cc1c(C(=O)Nc2ccncc2)oc2ccccc12 | > 60 µM (inactive) | > 60 µM | > 60 µM

Structure (SMILES) | EC50 | EC90 | CC50
CC(=O)Nc1cccc(NC(=O)c2cc3ccccc3o2)c1 | > 60 µM (inactive) | > 60 µM | > 60 µM
CCOC(=O)CN(C(=O)Cn1nnc2ccccc21)C(C(=O)NCCOC)c1ccccc1 (configuration not stated) | > 60 µM (inactive) | > 60 µM | > 60 µM
CN(C)S(=O)(=O)c1ccc(C(=O)NCc2ccccc2)cc1 | > 60 µM (inactive) | > 60 µM | > 60 µM
O=C(Nc1cccc2ncccc12)c1cc2ccccc2o1 | > 60 µM (inactive) | > 60 µM | > 60 µM
O=C(c1ccc(S(=O)(=O)N2CCOCC2)cc1)N1CCc2ccccc2C1 | > 60 µM (inactive) | > 60 µM | > 60 µM
O=C(CCS(=O)(=O)c1cccc2nsnc12)NC1CCCCCC1 | > 60 µM (inactive) | > 60 µM | > 60 µM
COc1ccc(OC)c(-n2c(SCC(N)=O)nnc2-c2c[nH]c3ccccc23)c1 | > 60 µM (inactive) | > 60 µM | > 60 µM
CC(=O)Nc1ccc(Nc2ncnc3c2cnn3-c2ccc(C)cc2C)cc1 | > 60 µM (inactive) | > 60 µM | > 60 µM
Cc1c(C(=O)Nc2ccccn2)oc2ccccc12 | > 60 µM (inactive) | > 60 µM | > 60 µM
CC1CCN(c2ccc(C(=O)NCc3cccs3)cn2)CC1 | > 60 µM (inactive) | > 60 µM | > 60 µM
Cc1cccc(NC(=O)C2CC(=O)OC23CCCC3)c1 (configuration not stated) | > 60 µM (inactive) | > 60 µM | > 60 µM
COc1ccc(C2=NOC(C(=O)Nc3cc(C)nn3-c3ccccc3)C2)cc1OC (configuration not stated) | > 60 µM (inactive) | > 60 µM | > 60 µM
NC(=O)CSc1nnc2sc3ccccc3n12 | > 60 µM (inactive) | > 60 µM | > 60 µM
O=C1CC(C(=O)Nc2ccccc2)C2(CCCCC2)O1 (configuration not stated) | > 60 µM (inactive) | > 60 µM | > 60 µM
O=C(NCc1ccccc1)c1ccc(S(=O)(=O)N2CCCC2)cc1 | > 60 µM (inactive) | > 60 µM | > 60 µM
COc1ccccc1Nc1ncnc2c1cnn2-c1cccc(C)c1 | > 60 µM (inactive) | > 60 µM | > 60 µM
O=C(c1cnn2c(C(F)F)cc(C3CC3)nc12)N1CCOCC1 | > 60 µM (inactive) | > 60 µM | > 60 µM
CCCCOc1ccc(C(=O)C(CN2CCOCC2)c2ccccc2)cc1 (configuration not stated) | > 60 µM (inactive) | > 60 µM | > 60 µM
CC(c1ccco1)N(C(=O)CSc1ccc(Br)cc1)c1ccccn1 (configuration not stated) | > 60 µM (inactive) | > 60 µM | > 60 µM
CCCCCn1c(=O)c(C(=O)Nc2c(C)n(C)n(-c3ccccc3)c2=O)c(O)c2ccccc21 | > 60 µM (inactive) | > 60 µM | > 60 µM
CC(C)(C)OC(=O)NCCc1nnc(SCc2ccc(Cl)cc2)o1 | > 60 µM (inactive) | > 60 µM | > 60 µM
O=C(c1cc(-c2ccc(Cl)cc2)n(-c2ccc(Cl)cc2Cl)n1)N1CCOCC1 | > 60 µM (inactive) | > 60 µM | > 60 µM
Cc1cccc(-n2ncc3c(N4CCc5ccccc54)ncnc32)c1 | > 60 µM (inactive) | > 60 µM | > 60 µM

Structure (SMILES) | EC50 | EC90 | CC50
Cc1ccc(C2NC(=O)NC3=C2CCc2ccccc23)cc1 (configuration not stated) | 1.75 µM | > 60 µM | > 60 µM
CC1Cc2ccccc2N1C(=O)C1CCCCN1S(=O)(=O)c1ccccc1 (configuration not stated) | > 60 µM (inactive) | > 60 µM | > 60 µM
CC1CCN(C(=O)Nc2cccc(NC(=O)N3CCC(C)CC3)c2)CC1 | > 60 µM (inactive) | > 60 µM | > 60 µM
CC(C)NC(=O)CSc1nnc2sc3ccccc3n12 | > 60 µM (inactive) | > 60 µM | > 60 µM
COc1ccc(C2NC(=O)NC3=C2CCc2ccccc23)cc1 (configuration not stated) | 3.6 µM | > 60 µM | > 60 µM
COc1ccc(OC)c(-n2c(SCC(=O)Nc3cc(C)on3)nnc2-c2c[nH]c3ccccc23)c1 | > 60 µM (inactive) | > 60 µM | > 60 µM
Cc1ccc(-n2ncc3c(Nc4cccc(C(=O)O)c4)ncnc32)cc1 | > 60 µM (inactive) | > 60 µM | > 60 µM
Cc1c(C(=O)Nc2ccc(Cl)cn2)oc2ccccc12 | > 60 µM (inactive) | > 60 µM | > 60 µM
CC(C)c1ccc(C2NC(=O)NC3=C2CCc2ccccc23)cc1 (configuration not stated) | > 60 µM (inactive) | > 60 µM | > 60 µM
N#CCC(=O)N1CCn2c1nc1ccccc12 | > 60 µM (inactive) | > 60 µM | > 60 µM
Cc1nc2ccc(NC(=O)C3CCN(S(=O)(=O)c4cccs4)CC3)cc2s1 | > 60 µM (inactive) | > 60 µM | > 60 µM
CC1CCCN(C(=O)Nc2cccc(NC(=O)N3CCCC(C)C3C)c2)C1C (configuration not stated) | > 60 µM (inactive) | > 60 µM | > 60 µM
COc1cccc(CNC(=O)c2ccc(S(=O)(=O)N3CCCC3)cc2)c1 | > 60 µM (inactive) | > 60 µM | > 60 µM
NS(=O)(=O)c1ccc(CCNC(=O)C2CCCCN2S(=O)(=O)c2ccccc2)cc1 (configuration not stated) | > 60 µM (inactive) | > 60 µM | > 60 µM
COC(=O)c1ccc(CN(C(C)=O)c2ccccc2)o1 | > 60 µM (inactive) | > 60 µM | > 60 µM
CCSc1nnc([C@H](Cc2ccccc2)NC(=O)OC(C)(C)C)o1 | > 60 µM (inactive) | > 60 µM | > 60 µM
O=C(Nc1ccccn1)c1cc2ccccc2o1 | > 60 µM (inactive) | > 60 µM | 23.9 µM
N#CCCCSc1nnc(-c2ccccn2)o1 | > 60 µM (inactive) | > 60 µM | > 60 µM
O=C(O)c1cccc(Nc2ncnc3c2cnn3-c2ccccc2)c1 | > 60 µM (inactive) | > 60 µM | > 60 µM
CN(C)c1cccc(C(=O)Nc2ccc3nc4n(c(=O)c3c2)CCCCC4)c1 | 17.4 µM | > 60 µM | > 60 µM
O=C1NC2=C(CCc3ccccc32)C(c2ccc(Br)cc2)N1 (configuration not stated) | 4.34 µM | 27.2 µM | > 60 µM
CC(C)CCNC(=O)C1CCCCN1S(=O)(=O)c1ccc(F)cc1 (configuration not stated) | > 60 µM (inactive) | > 60 µM | > 60 µM
CN1C(=O)Cn2c1nc1ccccc12 | > 60 µM (inactive) | > 60 µM | > 60 µM
